Here are results for four molecules from patent publication US6346282B1, “Neuroprotective composition for the prevention and/or treatment of nervous and behavioural alterations due to anxiety states or depression, comprising acetyl-L-carnitine and hypericin” (priority 1998, dated 2002).

Data set [1] deals with motor exploration activity in the mouse. As to the kind of experiment: Exploratory activity in mice (Hole Board Test). Type of data set: in vivo. The method, then:
This reduction is not related to sedation caused by the drug in the animal and can be offset using anxiolytic agents.
Using the technique described by Boissier (Boissier J. R., Physiol. Behav., 2. 447. 1967), tests (Hole Board Test) were conducted in order in a group of mice to ascertain whether the reduction in motor exploration activity induced in the animals by low-dose amphetamine (1 mg/kg i.p.) could be corrected by the oral administration of a carnitine mixture (consisting of a combination of L-carnitine+acetyl L-carnitine+propionyl L-carnitine+isovaleryl L carnitine in the same weight ratio to one another), or of acetyl L-carnitine, or Hypericum extract, or hypericin, or various combinations of these products.

The test system of the next data set is rats and mice. As to the kind of experiment: Toxicology tests, single-dose oral administration. Type of data set: in vivo. The following applies: 2 g/kg carnitine mixture, 2 g/kg acetyl L-carnitine, 1 g/kg Hypericum extract (approx. 0.3% hypericin), 3 mg/kg hypericin, each alone.
The test system of data set [2] is cerebral (cortex) concentrations of serotonin (5-HT) and hydroxy-indole-acetic acid (5-HIAA). As to the kind of experiment: Protective action against abnormal brain serotonin concentrations induced by fenfluramine. Type of data set: in vivo, (Sprague-Dawley) male rats. The following applies: CC 400 mg/kg, AC 400 mg/kg, HE 300 mg/kg, HYP 1 mg/kg, two weeks after treatment. From the text:
Since changes in concentration of cerebral biogenic amines regulate both excitatory and depressive emotional behaviour states, it was decided, in view of the above-mentioned action of hypericin and Hypericum extracts at catecholamine and particularly serotoninergic receptor level and on the reuptake of serotonin itself, to evaluate changes in cerebral concentrations of serotonin after treatment with Hypericum extracts, hypericin, carnitine mixture or acetyl L-carnitine, alone or in various combinations, in conjunction with treatment with a substance such as fenfluramine, the neurotoxicity of which manifests itself also through a reduction in brain serotonin concentrations. It is well known, in fact, that fenfluramine [N-ethyl-α-methyl-m-(trifluoro-methyl)phenethylamine] exerts a neurotoxic action on the brain, which is identifiable both histologically on the basis of derangement of the cerebral serotoninergic structures and through depletion of serotonin concentrations in the brain.
The tests were conducted using a group of (Sprague-Dawley) male rats which were administered fenfluramine orally at the dose of 5 mg/kg twice daily for 5 days consecutively, either alone or at the same time, and for the same period, as a carnitine mixture (400 mg/kg) (consisting in a combination of L-carnitine+acetyl L-carnitine+propionyl L-carnitine+isovaleryl L-carnitine present in the same weight ratio to one another), or acetyl L-carnitine (400 mg/kg), or Hypericum extract (with a 0.3% hypericin content−300 mg/kg), or hypericin (1 mg/kg), or various combinations of these products at the same doses.
Two weeks after treatment, the animals were sacrificed and the cerebral cortex isolated and subjected to measurement of the cerebral content both of serotonin (5-HT) and of hydroxy-indole-acetic acid (5-HIAA) according to the method described by Wise (Wise, C. D., Anal. Biochem., 18, 94, 1967) and modified by Ricaurte (Ricaurte, G. A., J. Pharmacol. Exptl. Ther., 261, 616, 1992).

The test system of data set [3] is mice descending from platform. As to the kind of experiment: Platform Test in mice. The format is in vivo. To be noted: ten animals per group, carnitine mixture or acetyl L-carnitine 400 mg/kg, Hypericum extract 300 mg/kg, hypericin 1 mg/kg; for % of mice descending from 5 cm: platform 5 cm from the ground; for % of mice descending from 9 cm: platform 9 cm from the ground. The method, then: Ten animals were used per group and the percentage of animals that managed to descend from the platform was calculated. […] It was modified even more by the administration of a combination of these products plus the carnitine mixture (L-carnitine+acetyl L-carnitine+propionyl L-carnitine+isovaleryl L-carnitine present in the same weight ratio to one another, making a total dose of 400 mg/kg) or acetyl L-carnitine 400 mg/kg, neither of which modifies the animals' behaviour when administered alone.

Data set [4] deals with swimming-induced immobility in mice. As to the kind of experiment: Immobility induced by forced swimming. Type of data set: in vivo. To be noted: last four minutes of six, oral, two administrations six hours and three hours before. The source says: One of the tests regarded as being most significant for assessing the activity of antidepressant substances is the forced swimming test in the mouse, which measures the changes in swimming-induced immobility which the various test substances produce (Borsini, F., Psychopharmacology, 94, 147, 1988). In these tests, the technique described by Persolt was adopted (Persolt, R. D., Eur. J. Pharmacol., 57, 201, 1979—Persolt, R. D., Arch. Int. Pharmacology, 229, 327, 1977) using ten […] per group. The animals were placed in beakers measuring 14 cm in height and approximately 12 cm in internal diameter which were filled with water (20-22° C.) up to 7.5 cm from the rim and then left there for six minutes. The duration of the immobility was calculated during the last four minutes. The mice were considered immobile when they performed only the movements necessary to keep themselves afloat on the water.
The substances tested were administered orally in two administrations six hours and three hours prior to the start of the experiment.

For data set [5], the system named is aggression of isolated male mice. As to the kind of experiment: Isolation-induced aggression test. The format is in vivo. To be noted: treated eight hours and half an hour before test, observation 180 seconds, carnitine mixture or acetyl L-carnitine 400 mg/kg, Hypericum extract 300 mg/kg, hypericin 1 mg/kg.
Description: This method consists in making the mice aggressive by keeping them isolated for twenty-one days in a cage and in assessing, after treatment, the latency time needed to trigger the aggression of the isolated animal when another animal is put in the cage with it. Only animals with latency times of less than 10 seconds before attacking were included in the tests, and the time of attack was taken as the time the isolated animal bit or tried to bite the other animal introduced into the cage.
The observation time was 180 seconds and the experiment was started 30 minutes after administration of the products tested. All isolated animals were treated, both eight hours and half an hour before the test, with carnitine mixture (consisting of a combination of L-carnitine+acetyl L-carnitine+propionyl L-carnitine+isovaleryl L-carnitine in an equiponderal ratio to one another) (400 mg/kg), or with acetyl L-carnitine (400 mg/kg) or with Hypericum extract (300 mg/kg) or with hypericin (1 mg/kg), or with various combinations of these products.
Where [6] appears, read: product alone, oral, 5 days, FE 5 mg/kg twice daily.
[7] abbreviates: together with fenfluramine (FE) 5 mg/kg oral twice daily for 5 days.
The mark [8] stands for this setting: oral treatment together with Amphetamine 1 mg/kg i.p., 30 minutes after amphetamine, CC 400 mg/kg, AC 400 mg/kg, HE 300 mg/kg, HYP 1 mg/kg.

Each structure is given as a SMILES string.

Regarding `CC(N)Cc1ccccc1` (stereo not drawn) [Amphetamine, amphetamine], the “Motor exploration activity, variations compared to controls” value in data set [1] (Amphetamine 1 mg/kg i.p. alone, 30 minutes after administration) is −45; in data set [1] (Amphetamine 5 mg/kg i.p. alone, 30 minutes after administration), “+55”.
In the case of `CC(=O)O[C@H](CC(=O)[O-])C[N+](C)(C)C` [Acetyl L-carnitine, acetyl L-carnitine], the “toxic effects or mortality” value in the data set with rats and mice is listed as “lack of toxic effects or mortality”. In data set [2] (setting [6]), the “Cerebral (cortex) concentrations 5-HIAA” value is listed as 0.28 ± 0.012 ng/mg tissue and the “Cerebral (cortex) concentrations 5-HT” value is recorded as 0.35 ± 0.020 ng/mg tissue. Moreover, in data set [2] (setting [7]), the “Cerebral (cortex) concentrations 5-HIAA” value is listed as 0.15 ± 0.019 ng/mg tissue and the “Cerebral (cortex) concentrations 5-HT” value was 0.18 ± 0.011 ng/mg tissue. The “Motor exploration activity, variations compared to controls” value in data set [1] (setting [8]) is −48. In data set [3], the “% of mice descending from 5 cm” value turned out to be 70% and the “% of mice descending from 9 cm” value is 0%. Also, in data set [4], the Immobility time was found to be 204 ± 8. In data set [5], the “Latency time of attack” value amounted to 14 ± 3 s.
Take `CCNC(C)Cc1cccc(C(F)(F)F)c1` (stereo not drawn) [FE, N-ethyl-α-methyl-m-(trifluoro-methyl)phenethylamine]: in data set [2] (setting [6]), the “Cerebral (cortex) concentrations 5-HIAA” value came to 0.14 ± 0.011 ng/mg tissue and the “Cerebral (cortex) concentrations 5-HT” value is reported as 0.17 ± 0.010 ng/mg tissue.
For the molecule `Cc1cc(O)c2c(=O)c3c(O)cc(O)c4c5c(O)cc(O)c6c(=O)c7c(O)cc(C)c8c1c2c(c34)c(c78)c65` [Hypericin, 1,3,4,6,8,13-hexahydroxy-10,11-dimethylphenanthro[1,10,9,8-opqra]perylene-7,14-dione], the “toxic effects or mortality” value in the data set on rats and mice is “lack of toxic effects or mortality”. Besides, in data set [2] (setting [6]), the “Cerebral (cortex) concentrations 5-HIAA” value is 0.30 ± 0.030 ng/mg tissue and the “Cerebral (cortex) concentrations 5-HT” value came out at 0.36 ± 0.019 ng/mg tissue. In data set [2] (setting [7]), the “Cerebral (cortex) concentrations 5-HIAA” value is on record as 0.25 ± 0.018 ng/mg tissue and the “Cerebral (cortex) concentrations 5-HT” value is 0.28 ± 0.020 ng/mg tissue. In data set [1] (setting [8]), the “Motor exploration activity, variations compared to controls” value is reported as −5. In data set [3], the “% of mice descending from 5 cm” value was 90% and the “% of mice descending from 9 cm” value turned out to be 30%. The same molecule had an Immobility time in data set [4] of 195 ± 5. The “Latency time of attack” value in data set [5] is 100 ± 9 s.
